Measurements published in patent publication US7335248B2, “Marine antifouling coating compositions” (Novus International, Inc., priority 2005, dated 2008).
“And” between values parts separate entries of the source, which are not always exact repeats. Equal values may be shown once.

Experiments:
barnacles [1] = test: Nine month static immersion testing in the Indian Ocean; type: in vivo; conditions: 9-month static immersion
From the text: Table 5 summarizes the anti-fouling data from the nine-month immersion test, performed as described above for the six month tests.

barnacle cyprids = test: Barnacle cyprid settlement assay (method of Rittschof et al.), EC50 by probit analysis; type: in vivo, Balanus amphitrite amphitrite
Procedure: In this case, the defined effect is that the cyprids have not settled and have not attached to the Petri dish. Thus, in the attached data set, the “set” column indicates the total number of cyprid larvae that have settled and attached on the surface of the Petri dish and “non-set” indicates the total number of cyprids that remain swimming in the seawater and have not settled on the surface of the Petri dish.
Briefly, the barnacle adults are cultured in the laboratory and allowed to spawn naturally. The larvae are harvested and grown in artificial culture systems until they reach the cyprid stage at which time the larvae become competent to attach to surfaces. Once attached, the cyprids transform into a pinhead barnacle, thus becoming permanently attached to the surface. Rittschof D, Clare A S, Gerhart D J, Avelin Mary, Bonavetura J (1991) Barnacle in vitro assays for biologically active substances: toxicity and settlement assays using mass cultured Balanus amphitrite amphitrite Darwin. Biofouling (1992) 6:115-122.
(§1) Five replicates (e.g., a-e) for each concentration and the control were collected.

[2] = Solubility in seawater at the levels added in the cyprid assay; type: physicochemical; conditions: at the levels added (up to 0.1 mg/ml)
From the text: as §1

barnacles [3] = test: Six month static immersion fouling test of painted PVC panels (open ocean, Tuticorin, India); type: in vivo; conditions: for Total barnacle Count: both duplicate panels; for Mean ± SD (barnacle count): four panel surfaces; for efficacy / barnacle settlement: copper self-polishing and metal-free ablative coatings, six months of exposure
From the text: The reported data were extracted from the raw data as described below, and are shown as total barnacle counts for both duplicate panels of each test formulation. In Table 4, the mean and standard deviation of the data derived from the four panels' surfaces of the duplicate panels for each group. The barnacle counts along the edges were not considered in this evaluation because of the expected uneven coating and inherent tendency of barnacles to first attach to edges. In addition, coatings along the edges can be easily damaged or uneven. Thus, for evaluation purposes only the coated surfaces of the flat areas were considered for this evaluation.
Zinc Omadine was used as the positive control for this series of tests. It is important to note here that fouling is continuous throughout the year at the Tuticorin, India site and the degree of settlement is generally the same for the same coating system.

[4] = 1e-5 mg/ml, Total of five replicates
[5] = 1e-4 mg/ml, Total of five replicates
[6] = 0.001 mg/ml, Total of five replicates
[7] = 0.01 mg/ml, Total of five replicates
[8] = 0.1 mg/ml, Total of five replicates
[9] = CUAB coating, 1% (w/w), 6 months
[10] = CUAB coating, 3% (w/w), 6 months
[11] = CUAB coating, 5% (w/w), 6 months
[12] = CUAB coating, 10% (w/w), 6 months
[13] = CUSP coating, 1% (w/w), 6 months
[14] = CUSP coating, 3% (w/w), 6 months
[15] = CUSP coating, 5% (w/w), 6 months
[16] = CUSP coating, 10% (w/w), 6 months
[17] = MFAB coating, 1% (w/w), 6 months
[18] = MFAB coating, 3% (w/w), 6 months
[19] = MFAB coating, 5% (w/w), 6 months
[20] = MFAB coating, 10% (w/w), 6 months

SMILES: CSCCC(O)C(=O)[O-].CSCCC(O)C(=O)[O-].[Cu+2] (stereo not shown) [HMTBA-Cu, copper 2-hydroxy-4-methylthiobutanoate chelate]
- LS MEAN BARNACLES (barnacles [1]; CUSP PAINT): 16
- LS MEAN BARNACLES (barnacles [1]; MFAB PAINT): 1.25
- % of set (barnacle cyprids; [4]): 74%
- Non set (barnacle cyprids; [4]): 86
- Set (barnacle cyprids; [4]): 241
- % of set (barnacle cyprids; 1e-5 mg/ml, single replicate): 77% and 70% and 74% and 68% and 82%
- Non set (barnacle cyprids; 1e-5 mg/ml, single replicate): 14 and 21 and 15 and 25 and 11
- Set (barnacle cyprids; 1e-5 mg/ml, single replicate): 46 and 48 and 42 and 54 and 51
- % of set (barnacle cyprids; [5]): 71%
- Non set (barnacle cyprids; [5]): 89
- Set (barnacle cyprids; [5]): 213
- % of set (barnacle cyprids; 1e-4 mg/ml, single replicate): 66% and 79% and 63% and 73% and 72%
- Non set (barnacle cyprids; 1e-4 mg/ml, single replicate): 11 and 12 and 29 and 16 and 21
- Set (barnacle cyprids; 1e-4 mg/ml, single replicate): 21 and 46 and 49 and 43 and 54
- % of set (barnacle cyprids; [6]): 53%
- Non set (barnacle cyprids; [6]): 155
- Set (barnacle cyprids; [6]): 173
- % of set (barnacle cyprids; 0.001 mg/ml, single replicate): 46% and 56% and 42% and 55% and 65%
- Non set (barnacle cyprids; 0.001 mg/ml, single replicate): 27 and 34 (2×) and 42 and 18
- Set (barnacle cyprids; 0.001 mg/ml, single replicate): 23 and 44 and 31 and 41 and 34
- appearance and swimming behavior of cyprids (barnacle cyprids; 0.01 mg/ml and higher (so in the source)): no adverse effects
- % of set (barnacle cyprids; [7]): 10%
- Non set (barnacle cyprids; [7]): 285
- Set (barnacle cyprids; [7]): 30
- % of set (barnacle cyprids; 0.01 mg/ml, single replicate): 9% and 6% and 8% (2×) and 24%
- Non set (barnacle cyprids; 0.01 mg/ml, single replicate): 79 and 66 and 59 and 25 and 56
- Set (barnacle cyprids; 0.01 mg/ml, single replicate): 8 (2×) and 4 and 5 (2×)
- toxic effects on the cyprids (barnacle cyprids; 0.1 mg per ml): death of all cyprids
- % of set (barnacle cyprids; [8]): 0%
- Non set (barnacle cyprids; [8]): 314
- Set (barnacle cyprids; [8]): 0
- % of set (barnacle cyprids; 0.1 mg/ml, single replicate): 0%
- Non set (barnacle cyprids; 0.1 mg/ml, single replicate): 69 and 94 and 54 and 59 and 38
- Set (barnacle cyprids; 0.1 mg/ml, single replicate): 0
- EC50 (barnacle cyprids; barnacle cyprids not settled/attached to Petri dish, probit analysis): 1.8 µg/mL
- inhibition of barnacle cyprid settlement (barnacle cyprids; in vivo): biologically active as inhibitors of barnacle cyprid settlement
- SLOPE (barnacle cyprids; probit analysis, barnacle settlement): 1.567
- solubility in seawater [2]: soluble in seawater at the levels added
- Total barnacle Count (barnacles [3]; [9]): 472
- Mean ± SD (barnacle count) (barnacles [3]; [9]): 118.0 ± 158.0
- Total barnacle Count (barnacles [3]; [10]): 170
- Mean ± SD (barnacle count) (barnacles [3]; [10]): 42.5 ± 21.1
- Total barnacle Count (barnacles [3]; [11]): 126
- Mean ± SD (barnacle count) (barnacles [3]; [11]): 31.4 ± 46.4
- Total barnacle Count (barnacles [3]; [12]): 123
- Mean ± SD (barnacle count) (barnacles [3]; [12]): 30.8 ± 12.9
- Total barnacle Count (barnacles [3]; [13]): 4
- Mean ± SD (barnacle count) (barnacles [3]; [13]): 1.0 ± 1.7
- Total barnacle Count (barnacles [3]; [14]): 6
- Mean ± SD (barnacle count) (barnacles [3]; [14]): 1.5 ± 2.6
- Total barnacle Count (barnacles [3]; [15]): 8
- Mean ± SD (barnacle count) (barnacles [3]; [15]): 2.0 ± 2.4
- Total barnacle Count (barnacles [3]; [16]): 9
- Mean ± SD (barnacle count) (barnacles [3]; [16]): 2.3 ± 1.9
- Total barnacle Count (barnacles [3]; [17]): 8
- Mean ± SD (barnacle count) (barnacles [3]; [17]): 2.0 ± 2.4
- Total barnacle Count (barnacles [3]; [18]): 13
- Mean ± SD (barnacle count) (barnacles [3]; [18]): 3.3 ± 4.5
- Total barnacle Count (barnacles [3]; [19]): 11
- Mean ± SD (barnacle count) (barnacles [3]; [19]): 2.8 ± 4.2
- Total barnacle Count (barnacles [3]; [20]): 4
- Mean ± SD (barnacle count) (barnacles [3]; [20]): 1.0 ± 1.7
- efficacy / barnacle settlement (barnacles [3]): significant efficacy

SMILES: [O-][n+]1ccccc1[S-].[O-][n+]1ccccc1[S-].[Zn+2] [Zn Omadine, zinc salt of pyrithione, reference compound]
- Total barnacle Count (barnacles [3]; [11]): 167
- Mean ± SD (barnacle count) (barnacles [3]; [11]): 41.8 ± 23.3
- Total barnacle Count (barnacles [3]; [15]): 33
- Mean ± SD (barnacle count) (barnacles [3]; [15]): 8.3 ± 4.0
- Total barnacle Count (barnacles [3]; [19]): 113
- Mean ± SD (barnacle count) (barnacles [3]; [19]): 28 ± 15.0
- barnacle coverage of panels (barnacles [3]; MFSP coating, 5%, 6 months): fully covered by barnacles
- efficacy / barnacle settlement (barnacles [3]): substantial settlement

SMILES: CSCC[C@H](N)C(=O)O.[Zn] [Zn-Methionine, zinc methionine]
- LS MEAN BARNACLES (barnacles [1]; CUSP PAINT): 0.5
- LS MEAN BARNACLES (barnacles [1]; MFAB PAINT): 8
